These results are taken from patent publication US5686486A, “4-hydroxy-benzopyran-2-ones and 4-hydroxy-cycloalkyl[b]pyran-2-ones useful to treat retroviral infections” (priority 1995, dated 1997).

pKi: −log10 of the molar value. Several values for one entry are separate records, joined by “and”; a condition that tells them apart may be missing. Equal values may be shown once.

In general, pKi refers to −log10 of the Ki, conventionally taken in molar units.

The target in the test is HIV-1 protease (Human immunodeficiency virus type 1 group M subtype B, UniProt P04585). As to the kind of experiment: biochemical. The settings on record: read-out: HIV-1 FITC KI. On the procedure: Determination of Ki values utilizes the same materials and equipment employed for percent inhibition studies. Two-fold serial dilutions are made for a given inhibitor from 2, 3 or 4 starting concentrations with a total of 24, 36 or 48 individual inhibitor concentrations. These dilutions are performed utilizing the BioMek robotics system. The assay consists of 10 μL of 40 nM HIV-1 protease, 10 μL of the various inhibitor concentrations, and 20 μL of 200 μM substrate (40 μL total). The reaction is allowed to proceed for 90 min at room temperature, terminated with 40 μL of avidin beads and processed (supra vide). An inhibitor with a known Ki is run in parallel to verify the validity of the assay. The data is processed utilizing a computer program employing a nonlinear least square analysis of the data to generate the Ki values.
Turning to `N#Cc1ccc(S(=O)(=O)Nc2cccc([C@@H](c3c(O)c4c(oc3=O)CCCCCC4)C3CC3)c2)cc1` [Example 255, (-)-4-Cyano-N-[3-[cyclopropyl(5,6,7,8,9, 10-hexahydro-4-hydroxy-2-oxo-2H-cycloocta[b]pyran-3-yl)methyl]phenyl]-benzenesulfonamide], the pKi is 9.21. To `O=c1oc2c(c(O)c1[C@@H](c1ccccc1)C1CC1)CCCCCC2` [Example 228] belongs 7.46.

Consider `O=c1oc2c(c(O)c1[C@@H](c1cccc(NS(=O)(=O)/C=C/c3ccccc3)c1)C1CC1)CCCCCC2` [Example 261, (+)-N-[3-[Cyclopropyl(5,6,7,8,9,10-hexahydro-4-hydroxy-2-oxo-2H-cycloocta[b]pyran-3-yl)methyl]phenyl]-2-phenyl-[(E)]-ethenesulfonamide], for which the pKi is 8.51. With `O=c1oc2c(c(O)c1[C@H](c1cccc(NS(=O)(=O)c3ccc(Cl)cc3)c1)C1CC1)CCCCCC2` [Example 250, (-)-4-Chloro-N-[3-[cyclopropyl(5,6,7,8,9,10-hexahydro-4-hydroxy-2-oxo-2H-cycloocta[b]pyran-3-yl)methyl]phenyl]-benzenesulfonamide], the negative-log Ki (pKi) was 8.91. For the molecule `O=c1oc2c(c(O)c1[C@H](c1cccc(NS(=O)(=O)/C=C/c3ccccc3)c1)C1CC1)CCCCCC2` [Example 257, (-)-N-[3-[Cyclopropyl(5,6,7,8,9,10-hexahydro4-hydroxy-2-oxo-2H cycloocta[b]pyran-3-yl)methyl]phenyl]-2-phenyl-[(E)]-ethenesulfonamide], the pKi is 8.52.

Take `CCCC1CCCCCc2c1oc(=O)c([C@H](c1ccccc1)C1CC1)c2O` (single isomer, unassigned) [Example 237, 3-(S)-(Cyclopropylphenylmethyl)-4-hydroxy-10-(R or S)-propyl-5,6,7,8,9,10-hexahydro-cycloocta[b]pyran-2-one]: the pKi was 7.22 and 6.93. The value for `CCCC1CCCCCc2c1oc(=O)c([C@@H](c1ccccc1)C1CC1)c2O` (single isomer, unassigned) [Example 234, 3-(R)-(Cyclopropylphenylmethyl)4-hydroxy-10-(R or S)-propyl-5,6,7,8,9,10-hexahydro-cycloocta[b]pyran-2-one] was 7.89 and 7.73; that for `N#Cc1ccc(S(=O)(=O)Nc2cccc([C@H](c3c(O)c4c(oc3=O)CCCCCC4)C3CC3)c2)cc1` [Example 259, (+)4-Cyano-N-[3-[cyclopropyl(5,6,7,8,9,10-hexahydro4-hydroxy-2-oxo-2H-cycloocta[b]pyran-3-yl)methyl]phenyl]-benzenesulfonamide] was 9.15. The value for `CCCC1CCCCCc2c1oc(=O)c([C@H](c1ccccc1)C1CC1)c2O` (single isomer, unassigned) [Example 236, 3-(S)-(Cyclopropylphenylmethyl)-4-hydroxy-10-(R or S)-propyl-5,6,7,8,9,10-hexahydro-cycloocta[b]pyran-2-one] was 8.00 and 8.10; that for `O=c1oc2c(c(O)c1C(c1ccccc1)C1CC1)CCCCC2` (single isomer, unassigned) [Example 231, (R or S)-3-(Cyclopropylphenylmethyl)-6,7,8,9-tetrahydro-4-hydroxy-cyclohepta[b]pyran-2(5H)-one] was 6.96 and 6.90. The value for `O=c1oc2c(c(O)c1[C@@H](c1cccc(NS(=O)(=O)c3ccccc3)c1)C1CC1)CCCCCC2` [Example 401, N-[3-[Cyclopropyl(5,6,7,8,9,10-hexahydro-4-hydroxy-2-oxo-2H-cycloocta[b]pyran-3-yl)methyl]phenyl]-(R)-benzenesulfonamide] was 8.64; that for `O=c1oc2c(c(O)c1[C@H](c1cccc(NS(=O)(=O)c3ccccc3)c1)C1CC1)CCCCCC2` [Example 258, (-)-N-[3-[Cyclopropyl(5,6,7,8,9,10-hexahydro4-hydroxy-2-oxo-2H-cycloocta[b]pyran-3-yl)methyl]phenyl]-benzenesulfonamide] was 8.12.
